# Measurements as given in PubChem BioAssay (NCI).
#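 Test compounds were applied to cells in 96-well plates for 48 hours at 5 doses. GI50: concentration for 50% inhibition of growth. The concentration for full growth arrest is given as TGI.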
# Key:
# Test in all cases: NCI-60 cell line screen, 48 h
# 786-0 renal = system: 786-0 renal
# A498 renal = system: A498 renal
# A549 NSCLC = system: A549 NSCLC
# ACHN renal = system: ACHN renal
# BT-549 breast = system: BT-549 breast
# CAKI-1 renal = system: CAKI-1 renal
# CCRF-CEM leukemia = system: CCRF-CEM leukemia
# COLO 205 colon = system: COLO 205 colon
# DU-145 prostate = system: DU-145 prostate
# HCC-2998 colon = system: HCC-2998 colon
# HCT-116 colon = system: HCT-116 colon
# HCT-15 colon = system: HCT-15 colon
# HL-60(TB) leukemia = system: HL-60(TB) leukemia
# HOP-62 NSCLC = system: HOP-62 NSCLC
# HOP-92 NSCLC = system: HOP-92 NSCLC
# HS 578T breast = system: HS 578T breast
# HT29 colon = system: HT29 colon
# IGROV1 ovarian = system: IGROV1 ovarian
# K-562 leukemia = system: K-562 leukemia
# KM12 colon = system: KM12 colon
# LOX IMVI melanoma = system: LOX IMVI melanoma
# MALME-3M melanoma = system: MALME-3M melanoma
# MCF7 breast = system: MCF7 breast
# MDA-MB-231 breast = system: MDA-MB-231 breast
# MDA-MB-435 = system: MDA-MB-435
# MOLT-4 leukemia = system: MOLT-4 leukemia
# NCI-H226 lung = system: NCI-H226 lung
# NCI-H23 lung = system: NCI-H23 lung
smiles,measurement,setting,value
Brc1ccc(Nc2nc3ccccc3nc2Nc2ccc(Br)cc2)cc1,GI50,786-0 renal,1730 nM
same,TGI,786-0 renal,5900 nM
same,GI50,A498 renal,51.3 nM
same,TGI,A498 renal,2750 nM
same,GI50,A549 NSCLC,393 nM
same,TGI,A549 NSCLC,11000 nM
same,GI50,ACHN renal,583 nM
same,TGI,ACHN renal,3220 nM
same,GI50,BT-549 breast,2440 nM
same,TGI,BT-549 breast,7980 nM
same,GI50,CAKI-1 renal,714 nM
same,TGI,CAKI-1 renal,6610 nM
same,GI50,CCRF-CEM leukemia,1010 nM
same,TGI,CCRF-CEM leukemia,10700 nM
same,GI50,COLO 205 colon,1840 nM
same,TGI,COLO 205 colon,3350 nM
same,GI50,DU-145 prostate,644 nM
same,TGI,DU-145 prostate,12400 nM
same,GI50,HCC-2998 colon,1660 nM
same,TGI,HCC-2998 colon,7700 nM
same,GI50,HCT-116 colon,418 nM
same,TGI,HCT-116 colon,1650 nM
same,GI50,HCT-15 colon,507 nM
same,TGI,HCT-15 colon,3210 nM
same,GI50,HL-60(TB) leukemia,2090 nM
same,TGI,HL-60(TB) leukemia,5960 nM
same,GI50,HOP-62 NSCLC,1430 nM
same,TGI,HOP-62 NSCLC,4120 nM
same,GI50,HOP-92 NSCLC,2190 nM
same,TGI,HOP-92 NSCLC,5500 nM
same,GI50,HS 578T breast,2900 nM
same,TGI,HS 578T breast,9050 nM
same,GI50,HT29 colon,404 nM
same,TGI,HT29 colon,10900 nM
same,GI50,IGROV1 ovarian,1430 nM
same,TGI,IGROV1 ovarian,13500 nM
same,GI50,K-562 leukemia,786 nM
same,TGI,K-562 leukemia,11600 nM
same,GI50,KM12 colon,1400 nM
same,TGI,KM12 colon,8960 nM
same,GI50,LOX IMVI melanoma,1720 nM
same,TGI,LOX IMVI melanoma,3310 nM
same,GI50,MALME-3M melanoma,1980 nM
same,TGI,MALME-3M melanoma,4950 nM
same,GI50,MCF7 breast,527 nM
same,TGI,MCF7 breast,5410 nM
same,GI50,MDA-MB-231 breast,1460 nM
same,TGI,MDA-MB-231 breast,3010 nM
same,GI50,MDA-MB-435,1510 nM
same,TGI,MDA-MB-435,4900 nM
same,GI50,MOLT-4 leukemia,1150 nM
same,TGI,MOLT-4 leukemia,9450 nM
same,GI50,NCI-H226 lung,2750 nM
same,TGI,NCI-H226 lung,10100 nM
same,GI50,NCI-H23 lung,1320 nM
same,TGI,NCI-H23 lung,6520 nM
